Reference: patent US9370555B2, “Surfactant protein D for the treatment of disorders associated with lung injury” (priority 1998, dated 2016)
“Also recorded” adds a separate entry of the source.

Tests used:
[1] = system: MMP-2 and 9; assay: Gelatin zymography of conditioned media from alveolar macrophages of SP-D(−/−) mice; assay type: cell-based, mouse; conditions: for gelatinolytic activity of MMP-2 and 9 in conditioned media: AMs from SP-D(−/−) mice, 20 mM NAC, 200 μM PDTC, 1 μM DPI, 1 mM apocynin, 10 μM SN-50, 24 h
Protocol: Isolation of alveolar macrophages (AMs) from bronchoalveolar lavage (BAL) was performed by instilling ten, 1 ml aliquots of phosphate-buffered saline (PBS). BAL fluid from several animals was pooled to provide sufficient numbers of macrophages for each analysis. The lavage was centrifuged at 1200 rpm at 7 min and pelleted cells were resuspended in serum-free RPMI medium containing 1% of Nutriodoma (Boehringer Mannheim, Indianapolis, Ind.), and counted with a hemocytometer. More than 90% of BAL cells were AM in both WT and SP-D (−/−) mice. For some experiments, alveolar macrophages (AMs) were isolated by differential attachment to tissue culture flasks at 37° C. Non-adherent cells were then removed, and fresh, serum-free medium was added. The adherent AMs were maintained in a humidified atmosphere containing 5% CO2 and 95% air until the end of the experiments. To determine whether increased oxidant production mediated the expression of MMPs by AMs from SP-D (−/−) mice, the cells were treated with N-acetylcysteine (NAC) and pyrrolidine dithiocarbamate (PDTC), both antioxidant reagents as follows: AMs from SP-D (−/−) mice were pooled and placed in culture at a concentration of 5×10^5 cells per well in serum-free RPMI medium. The AMs were treated with 20 mM N-acetylcysteine (NAC), 200 μM pyrolidine dithiocarbamate (PDTC), 1 μM diphenylene iodonium chloride (DPI) (Sigma, St. Louis, Mo.), or 1 mM apocynin (Aldrich, Milwaukee, Wis.). Cells were also incubated with a 10 μM SN-50 (Calbiochem, LaJolla, Calif.), an inhibitor of NF-κB nuclear import. After 6 h incubation, supernatants were removed and the cells were washed and incubated with fresh media including the reagents for 24 h. […] RAW 264.7 murine macrophage cell line was obtained from the American Type Culture Collection (Rockville, Md.) and maintained in DMEM containing 10% FBS, 10 mM HEPES, 50 U/ml penicillin and 50 μg/mL streptomycin. 2×10^5 cells in 24-well plates were incubated with or without 10 μM menadione (Sigma, St. Louis, Mo.) for 24 hours. Gelatinolytic activity in the culture media of untreated and treated cells was analyzed by SDS-PAGE zymography (FIGS. 29A-29D). Gelatin Zymography was performed as follows: MMP activities were measured in macrophage-conditioned media. Proteinases in the conditioned media were concentrated by incubation with gelatin-agarose beads (Amersham Pharmacia, Arlington Heights, Ill.) for 2 h at 4° C. The beads were pelleted and washed, and proteinases eluted by incubation in sample buffer for 45 min at 37° C. The samples then were electrophoresed into 10% Zymogram gelatin gels (NOVEX, San Diego, Calif.). […] Gels were stained with 0.5% (wt/vol) Coomassie blue in 50% methanol and 10% acetic acid for 30 min, then destained. MMPs were detected as clear bands against a blue background.

[2] = system: MMP-2 and 9 mRNA; assay: RT-PCR of MMP-2 and 9 mRNA in cultured AMs from SP-D(−/−) mice; assay type: cell-based, mouse; conditions: 1 mM apocynin
[3] = system: NF-κB; assay: EMSA of nuclear extracts from AMs of SP-D(−/−) mice, NF-κB oligonucleotide; assay type: cell-based, mouse; conditions: AMs isolated from SP-D(−/−) mice
Protocol: (§1) To assess whether apocyanin affected binding of nuclear extracts, the following protocol was used: Nuclear extracts were obtained using a modified method previously described (Sever Chroneos, et al. Am. J. Physiol. 277:L79). Lavaged cells were lysed with Buffer A (10 mM Hepes, 10 mM KCl, 0.1 mM EDTA, 1.5 mM MgCl2, 0.2% Nonidet P-40 (NP-40), 1 mM DTT, 0.5 mM PMSF), followed by vortexing to shear the cytoplasmic membranes. Nuclei were pelleted by centrifugation at 3000 rpm for 3 min at 4° C. in a microcentrifuge. Nuclear proteins were extracted with high-salt buffer C (20 mM Hepes, 25% glycerol, 1.5 mM MgCl2, 0.1 mM EDTA, 1.5 mM MgCl2, 420 mM NaCl, 1 mM DTT, 0.5 mM PMSF) and stored at −80° C. Total nuclear protein concentrations were determined by bicinchoninic acid (BCA) method.

[4] = system: AP-1; assay: EMSA of nuclear extracts from AMs of SP-D(−/−) mice, AP-1 oligonucleotide; assay type: cell-based, mouse; conditions: AMs isolated from SP-D(−/−) mice
Protocol: as §1

[5] = system: RAW 264.7 murine macrophage cell line; assay: MMP-9 production by RAW 264.7 macrophages (zymography); assay type: cell-based, mouse; conditions: 10 μM, 24 hours
Protocol: RAW 264.7 murine macrophage cell line was obtained from the American Type Culture Collection (Rockville, Md.) and maintained in DMEM containing 10% FBS, 10 mM HEPES, 50 U/ml penicillin and 50 μg/mL streptomycin. 2×10^5 cells in 24-well plates were incubated with or without 10 μM menadione (Sigma, St. Louis, Mo.) for 24 hours. To assess whether ROS directly stimulated MMP production, RAW 264.7 macrophages were incubated with 10 μM of menadione, a ROS generator, for 24 hours.

[6] = system: SP-D(−/−) mice; assay: Treatment of SP-D(−/−) mice with purified mouse SP-D: saturated PC pools; assay type: in vivo; conditions: 2.9 μg intratracheally at 24 hour intervals, 3 to 7 doses
[7] = system: influenza A virus A/Phillipines/82 (H3N2) (Phil/82); assay type: in vivo; conditions: SP-D −/− mice

Q: With `c1ccc2c(c1)[I+]c1ccccc1-2` [DPI, diphenylene iodonium chloride] as the molecule, how does the “gelatinolytic activity of MMP-2 and 9 in conditioned media” value (from here on “gelatinolytic activity”) [1] read?
A: markedly suppressed MMP enzymatic activity; also recorded: markedly decreased MMP activity

Q: Which “gelatinolytic activity” value [1] does the source give for `CC(=O)N[C@@H](CS)C(=O)O` [NAC, N-acetylcysteine] here?
A: reduced gelatinolytic activity; also recorded: inhibited gelatinolytic activities of MMP-2 and 9

Q: How did the “gelatinolytic activity” value [1] turn out when `S=C(S)N1CCCC1` [PDTC, pyrrolidine dithiocarbamate] was run?
A: reduced gelatinolytic activity; also recorded: inhibited gelatinolytic activities of MMP-2 and 9

Q: For `COc1cc(C(C)=O)ccc1O` [apocynin], which “gelatinolytic activity” value [1] is on record?
A: markedly suppressed MMP enzymatic activity; also recorded: markedly decreased MMP activity

Q: What about the “MMP-2 and 9 mRNA” value [2] of the same molecule?
A: reduced MMP-2 and 9 mRNA

Q: What about the “binding of nuclear extracts to NF-κB oligonucleotide (EMSA)” value [3] of the same molecule?
A: reduced DNA binding activity of NF-κB

Q: What about the “binding of nuclear extracts to NF-κB oligonucleotide (EMSA)” value ([3]; listed as Apocynin) of the same molecule?
A: reduced binding of nuclear extracts

Q: What about the “DNA binding activity to an AP-1 oligonucleotide (EMSA)” value [4] of the same molecule?
A: decreased DNA binding activity

Q: How did the MMP-9 production [5] turn out when `CC1=CC(=O)c2ccccc2C1=O` [menadione] was run?
A: increased

B1: purified mouse SP-D: Surfactant protein D purified from BAL fluid of GMCSF and SP-A double null mutant mice on maltosyl-agarose (protein, UniProt P50404 20-374, looked up)
Pulmonary …: AEMKSLSQRSVPNTCTLVMCSPTENGLPGRDGRDGREGPRGEKGDPGLPGPMGLSGLQGPTGPVGPKGENGSAGEPGPKGERGLSGPPGLPGIPGPAGKEGPSGKQGNIGPQGKPGPKGEAGPKGEVGAPGMQGSTGAKGSTGPKGERGAPGVQGAPGNAGAAGPAGPAGPQGAPGSRGPPGLKGDRGVPGDRGIKGESGLPDSAALRQQMEALKGKLQRLEVAFSHYQKAALFPDGRSVGDKIFRTADSEKPFEDAQEMCKQAGGQLASPRSATENAAIQQLITAHNKAAFLSMTDVGTEGKFTYPTGEPLVYSNWAPGEPNNNGGAENCVEIFTNGQWNDKACGEQRLVICEF
Q: Which results are given for B1?
A: Saturated PC levels in alveolar lavage and total lung lavage (lipid accumulation) [6]: partial correction of lipid accumulation; also recorded: decreased both alveolar and saturated PC pools; MMP production by AMs ([1]; mouse SP-D 5 μg/ml in vitro): did not reduce MMP production

B2: recombinant SP-D: Recombinant human SP-D dodecamers secreted by CHO-K1 cells transfected with full-length human cDNA (protein)
chain: B1 Pulmonary …
Q: How did the “IAV (Phil/82) titer in lung” value ([7]; 5 μg intratracheal co-administration, 3 days after infection, untreated 1.6×10^5±4.0×10^4, mean±SEM) turn out when B2 was run?
A: 7.5×10^4±1.4×10^4 ff/gram lung

Q: And the “clearance of IAV from the lung” value ([7]; co-administration of recombinant SP-D)?
A: normalized viral clearance; also recorded: enhanced clearance
